For one series, the system named is T1, galectins.
T1 construct: Kd, all galectins; other: compared with lactose
The conditions noted are these: cited from earlier work.

The target of series [1] is T2, Galectin-1 (Homo sapiens, UniProt P09382). The conditions noted are these: T. Delaine 2016; read-out: affinity to Galectin-1; cited from earlier work.
Another series relates to CACO-2. Nature of the series: CACO-2 model of uptake over the human intestine. The series is classed as in vitro ADME. To be noted: result in words. The text has this: (§1) For some compounds of this invention wherein R^1 of formula 1 is an alkylated hydroxy, for example —OCH3 high uptake and no efflux is observed in a CACO-2 model of uptake ver the human intestine. That predicts high likeliness of high human oral bioavailability.

Series [2] in a line: CACO-2 model of uptake over the human intestine. To be noted: human, Caco-2. The series is classed as in vitro ADME.
Source text: as §1

The target in a further series is Galectin-3 (Homo sapiens, UniProt P17931). Nature of the series: fluorescence anisotropy assay, compound as inhibitor of galectin / fluorescein tagged saccharide probe interaction. The series is classed as binding. The text has this:
(§2) Anal. Biochem. 334: 36-47, (Sörme et al., 2004) and Monovalent interactions of Galectin-1 By Salomonsson, Emma; Larumbe, Amaia; Tejler, Johan; Tullberg, Erik; Rydberg, Hanna; Sundin, Anders; Khabut, Areej; Frejd, Torbjorn; Lobsanov, Yuri D.; Rini, James M.; et al, From Biochemistry (2010), 49(44), 9518-9532, (Salomonsson et al., 2010).
On the technique in general: Polarisation of emitted light reports the rotation of a fluorescent probe.

For series [3], the target named is T2, Galectin-1. The series is described as above. In kind it is binding.
Source text: as §2

What is called Papp A→B is how fast a substance crosses the layer from the apical side. One may read the Papp B→A as the apparent permeability from the basolateral to the apical side of a cell layer.

Like-named read-outs stand apart in the source and are kept apart here.

Sequence of Galectin-3 (P17931 whole entry): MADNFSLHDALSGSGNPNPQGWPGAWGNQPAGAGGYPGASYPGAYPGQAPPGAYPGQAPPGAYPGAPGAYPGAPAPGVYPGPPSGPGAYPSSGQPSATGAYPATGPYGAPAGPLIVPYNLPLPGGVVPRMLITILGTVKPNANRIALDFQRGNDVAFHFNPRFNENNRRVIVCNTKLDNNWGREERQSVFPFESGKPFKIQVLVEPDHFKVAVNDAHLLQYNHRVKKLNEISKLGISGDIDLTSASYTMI
T2 sequence (P09382 whole entry): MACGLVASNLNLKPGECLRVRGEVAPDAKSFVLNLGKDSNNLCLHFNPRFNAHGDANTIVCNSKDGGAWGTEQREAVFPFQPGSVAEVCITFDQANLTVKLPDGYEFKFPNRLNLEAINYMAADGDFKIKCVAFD

`O=C[C@H](O)[C@@H](O)[C@@H](O)[C@H](O)CO` [D-galactose]: the “affinity relative to lactose (times lower)” value in the series with galectins (compared with lactose) is listed as 50-100 times.
Consider `OCC1O[C@@H](SC2O[C@H](CO)C(O)C(n3cc(-c4ccsc4)nn3)[C@H]2O)C(O)C(n2cc(-c3ccsc3)nn2)[C@H]1O` (stereo partly shown), for which, on Galectin-1 [1], the Kd is below 0.01 µM.
For the molecule `OC[C@H]1O[C@@H](O[C@H]2[C@H](O)[C@@H](O)C(O)O[C@@H]2CO)[C@H](O)[C@@H](O)[C@H]1O` (stereo partly shown) [lactose], at galectins (read-out: Kd, all galectins), the Kd was 100 to 1000 µM.
For `CO[C@@H]1[C@@H](n2cc(-c3nccs3)nn2)[C@@H](O)[C@@H](CO)O[C@@H]1Sc1cc(Cl)c(F)c(Cl)c1` [Example 1, 3,5-Dichloro-4-fluorophenyl 3-deoxy-2-O-methyl-3-[4-(2-thiazolyl)-1H-1,2,3-triazol-1-yl]-1-thio-α-D-galactopyranoside], in the series on CACO-2, the “uptake and efflux in CACO-2 model” value was “the uptake is very high and virtually no efflux is observed”. In series [2] (A>B, read-out: Papp from the apical to the basolateral side (A>B)), the Papp A→B stood at 20 ×10⁻⁶ cm/s. In series [2] (B>A, read-out: Papp from the basolateral to the apical side B>A), the Papp B→A was found to be 28 ×10⁻⁶ cm/s. Moreover, the Kd on Galectin-3 turned out to be 8 µM; at Galectin-1 [3] (read-out: Galectin-1 Kd), 0.175 µM.
Take `CO[C@@H]1[C@@H](n2cc(-c3csc(O)n3)nn2)[C@@H](O)[C@@H](CO)O[C@@H]1Sc1ccc(Cl)c(Cl)c1` [Example 9, 3,4-Dichlorophenyl 3-deoxy-3-[4-(2-hydroxythiazol-4-yl)-1H-1,2,3-triazol-1-yl]-2-O-methyl-1-thio-α-D-galactopyranoside]: the Kd at Galectin-3 is 4.6 µM; at Galectin-1 [3] (read-out: Galectin-1 Kd), 0.041 µM.
Turning to `CO[C@@H]1[C@@H](n2cc(-c3csc(Cl)n3)nn2)[C@@H](O)[C@@H](CO)O[C@@H]1Sc1cc(Cl)cnc1C#N` [Example 15, 5-Chloro-2-cyanopyridin-3-yl 3-[4-(2-chlorothiazol-4-yl)-1H-1,2,3-triazol-1-yl]-3-deoxy-2-O-methyl-1-thio-α-D-galactopyranoside], the Kd on Galectin-3 came to 0.2 µM; at Galectin-1 [3] it was 0.056 µM.
On to `C#Cc1cnc(C(=O)N2CCC2)c(S[C@H]2OC(CO)[C@H](O)C(n3cc(-c4nc(Cl)cs4)nn3)C2OC)c1` (stereo partly drawn) [Example 92, 2-(N-Azetidinylcarbamoyl)-5-ethynylpyridin-3-yl 3-[4-(4-chlorothiazol-2-yl)-1H-1,2,3-triazol-1-yl]-3-deoxy-2-O-methyl-1-thio-α-D-galactopyranoside], for which the Kd on Galectin-3 worked out at 0.099 µM; on Galectin-1 [3], 0.032 µM.
Taken in the same sequence, the figures for `CCO[C@@H]1[C@@H](n2cc(-c3nc(Cl)cs3)nn2)[C@@H](O)[C@@H](CO)O[C@@H]1Sc1cc(Br)cnc1C(=O)N(C)C` [Example 90, 5-Bromo-2-(N,N-dimethylcarbamoyl)pyridin-3-yl 3-[4-(4-chlorothiazol-2-yl)-1H-1,2,3-triazol-1-yl]-3-deoxy-2-O-ethyl-1-thio-α-D-galactopyranoside] were 0.044 µM and 0.0085 µM.
The matching figures for `CO[C@@H]1[C@@H](n2cc(-c3csc(O)n3)nn2)[C@@H](O)[C@@H](CO)O[C@@H]1Sc1cc(Br)ccc1C#N` [Example 58, 5-Bromo-2-cyanophenyl 3-deoxy-3-[4-(2-hydroxythiazol-4-yl)-1H-1,2,3-triazol-1-yl]-2-O-methyl-1-thio-α-D-galactopyranoside]: 2 µM and 0.022 µM.
On to `C#Cc1cnc(C#N)c(S[C@H]2O[C@H](CO)[C@H](O)[C@H](n3cc(-c4csc(N)n4)nn3)[C@H]2O)c1` [Example 84, 2-Cyano-5-ethynylpyridin-3-yl 3-[4-(2-aminothiazol-4-yl)-1H-1,2,3-triazol-1-yl]-3-deoxy-1-thio-α-D-galactopyranoside], for which the Kd on Galectin-3 turned out to be 4.1 µM; on Galectin-1 [3], 0.54 µM.
Turning to `CO[C@@H]1[C@@H](n2cc(-c3nc(Cl)cs3)nn2)[C@@H](O)[C@@H](CO)O[C@@H]1Sc1cc(Br)cnc1C#N` [Example 11, 5-Bromo-2-cyanopyridin-3-yl 3-[4-(4-chlorothiazol-2-yl)-1H-1,2,3-triazol-1-yl]-3-deoxy-2-O-methyl-1-thio-α-D-galactopyranoside], the Kd is 0.17 µM at Galectin-3 and 0.019 µM on Galectin-1 [3].
Consider `CO[C@@H]1[C@@H](n2cc(-c3nc(Cl)cs3)nn2)[C@@H](O)[C@@H](CO)O[C@@H]1Sc1cc(C)cnc1C#N` [Example 36, 2-Cyano-5-methylpyridin-3-yl 3-[4-(4-chlorothiazol-2-yl)-1H-1,2,3-triazol-1-yl]-3-deoxy-2-O-methyl-1-thio-α-D-galactopyranoside], for which the figures for the Kd at Galectin-3 and at Galectin-1 [3] were 0.7 µM and 0.19 µM, respectively.
On to `CNC(=O)c1ncc(Cl)cc1S[C@H]1O[C@H](CO)[C@H](O)[C@H](n2cc(-c3nc(Cl)cs3)nn2)[C@H]1OC` [Example 93, 5-Chloro-2-(N-methylcarbamoyl)pyridin-3-yl 3-[4-(4-chlorothiazol-2-yl)-1H-1,2,3-triazol-1-yl]-3-deoxy-2-O-methyl-1-thio-α-D-galactopyranoside], for which the Kd at Galectin-3 came to 0.048 µM; on Galectin-1 [3], 0.015 µM.
On to `CO[C@@H]1[C@@H](n2cc(-c3nc(C)cs3)nn2)[C@@H](O)[C@@H](CO)O[C@@H]1Sc1cc(Cl)cnc1-c1ccccn1` [Example 46, 5-Chloro-2-(pyridin-2-yl)pyridin-3-yl 3-deoxy-3-[4-(4-methylthiazol-2-yl)-1H-1,2,3-triazol-1-yl]-2-O-methyl-1-thio-α-D-galactopyranoside], for which the Kd was 2.53 µM at Galectin-3 and 0.035 µM at Galectin-1 [3].
The matching figures for `CO[C@@H]1[C@@H](n2cc(-c3nccs3)nn2)[C@@H](O)[C@@H](CO)O[C@@H]1Sc1cc(Br)cnc1C#N` [Example 3, 5-Bromo-2-cyanopyridin-3-yl 3-deoxy-2-O-methyl-3-[4-(2-thiazolyl)-1H-1,2,3-triazol-1-yl]-1-thio-α-D-galactopyranoside]: 1.1 µM and 0.11 µM.
The matching figures for `CO[C@@H]1[C@@H](n2cc(-c3nc(Cl)cs3)nn2)[C@@H](O)[C@@H](CO)O[C@@H]1Sc1cncc(SC)c1` [Example 102, 5-Methylsulfanylpyridin-3-yl 3-[4-(4-chlorothiazol-2-yl)-1H-1,2,3-triazol-1-yl]-3-deoxy-2-O-methyl-1-thio-α-D-galactopyranoside]: 0.42 µM and 0.19 µM.
As for `N#Cc1ncc(Cl)cc1S[C@H]1O[C@H](CO)[C@H](O)[C@H](n2cc(-c3csc(N)n3)nn2)[C@H]1OCc1cc(F)c(O)c(F)c1` [Example 25, 5-Chloro-2-cyanopyridin-3-yl 3-[4-(2-aminothiazol-4-yl)-1H-1,2,3-triazol-1-yl]-3-deoxy-2-O-(3,5-difluoro-4-hydroxybenzyl)-1-thio-α-D-galactopyranoside], the Kd stood at 0.74 µM at Galectin-3 and 0.024 µM on Galectin-1 [3].
In the case of `C#Cc1cncc(S[C@H]2O[C@H](CO)[C@H](O)[C@H](n3cc(-c4nccs4)nn3)[C@H]2OC)c1` [Example 47, 5-Ethynylpyridin-3-yl 3-deoxy-2-O-methyl-3-[4-(2-thiazolyl)-1H-1,2,3-triazol-1-yl]-1-thio-α-D-galactopyranoside], the Kd came out at 3.2 µM on Galectin-3 and 0.57 µM at Galectin-1 [3].
Consider `CNC(=O)c1ccc(Br)cc1S[C@H]1OC(CO)[C@H](O)C(n2cc(-c3nc(Cl)cs3)nn2)C1OC` (stereo partly drawn) [Example 60, 5-Bromo-2-(N-methyl-carbonyl)phenyl 3-[4-(4-chlorothiazol-2-yl)-1H-1,2,3-triazol-1-yl]-3-deoxy-2-O-methyl-1-thio-α-D-galactopyranoside], for which the Kd came to 0.18 µM on Galectin-3 and 0.039 µM on Galectin-1 [3].
Take `CO[C@@H]1[C@@H](n2cc(-c3csc(N)n3)nn2)[C@@H](O)[C@@H](CO)O[C@@H]1Sc1cc(Cl)cnc1-c1ncco1` [Example 27, 5-Chloro-2-(oxazol-2-yl)pyridin-3-yl 3-[4-(2-aminothiazol-4-yl)-1H-1,2,3-triazol-1-yl]-3-deoxy-2-O-methyl-1-thio-α-D-galactopyranoside]: the Kd at Galectin-3 came out at 3.2 µM; on Galectin-1 [3], 0.028 µM.

These data come from US12441754B2, “Galactoside inhibitor of galectins” (GALECTO BIOTECH AB, priority 2019, dated 2025).
